This is an account of results in paper PMC8466554, “Heteroaryl-Ethylenes as New Lead Compounds in the Fight against High Priority Bacterial Strains” (Antibiotics, 2021).

“And” between values parts separate entries of the source, which are not always exact repeats. Equal values may be shown once. Read-outs that look alike come from different tables or passages of the source.

For one experiment, the system named is CaCo-2 cells. As to the kind of experiment: MTT cytotoxicity assay. In kind it is cell-based, human. The conditions noted are these: 24 h of incubation relative to untreated controls. As to the method:
To evaluate the biological activity of the PBn series, compounds were screened for toxicity against the colon-rectal cancer cell line CaCo-2 (ATCC HTB-37). These human cancer cells were treated with solutions of the compounds at decreasing concentrations, starting from 100 μM up to 0.01 μM. The reference compound used for these assays was 5-Fluorouracil (5-Fu), a pyrimidine analogue belonging to the family of antimetabolite. […] Briefly, human colorectal adenocarcinoma cells (CaCo-2 HTB-37^TM Colorectal Adenocarcinoma Human, American Type Culture Collection, Manassas, VA, USA) were grown in Dulbecco’s MEM (DMEM) with 10% heat-inactivated fetal bovine serum, 2 mM L-Alanyl-L-Glutamine, penicillin-streptomycin (50 units-50 μg for mL) and incubated at 37 °C in a humidified atmosphere of 5% CO2, 95% air. CaCo-2 cells were plated in 96 well pates and incubated at 37 °C. The PBn series compounds and 5-FU were prepared as a 1 mM solution in 10 mL with 0.01% DMSO. Then, 24 h after plating, cells were treated with 20 μL of each solution. Untreated cells were used as controls. […] The results were read on a multiwell scanning spectrophotometer (AF2200 plate reader, Eppendorf, Milan, Italy), using a wavelength of 569 nm.

For another experiment, the system named is P. aeruginosa ATCC27853. As to the kind of experiment: MIC microtiter plate assay. In kind it is cell-based, Pseudomonas aeruginosa.
The test system of experiment [1] is K. pneumoniae ATCC BAA-2814. Nature of the experiment: MIC microtiter plate assay. The conditions noted are these: K. pneumoniae ATCC BAA-2814 (MDR strain). In kind it is cell-based, Klebsiella pneumoniae.
The subject of a further experiment is S.aureus ATCC29213-MSSA. Nature of the experiment: MIC and MBC microtiter plate assay. It counts as cell-based, Staphylococcus aureus.
Experiment [2] relates to E. faecalis ATCC51299-VRE. As to the kind of experiment: MIC and MBC microtiter plate assay, also with different inocula. In kind it is cell-based.
Another experiment has as its system S.aureus Mu50-VISA. As to the kind of experiment: MIC and MBC microtiter plate assay. It counts as cell-based, Staphylococcus aureus.
Another experiment relates to E. coli ATCC25922. Nature of the experiment: MIC and MBC microtiter plate assay, also with different inocula. It counts as cell-based, Escherichia coli.
In the next experiment the test system is S.aureus USA300-CAMRSA. Nature of the experiment: MIC and MBC microtiter plate assay. In kind it is cell-based, Staphylococcus aureus.
The test system of another experiment is S.aureus ATCC12598-MSSA. As to the kind of experiment: MIC and MBC microtiter plate assay, also with different inocula. In kind it is cell-based, Staphylococcus aureus.
The next experiment has as its system K. pneumoniae ATCC700603. As to the kind of experiment: MIC microtiter plate assay. It counts as cell-based, Klebsiella pneumoniae.
The next experiment concerns A. baumannii ATCC17978. Nature of the experiment: MIC and MBC microtiter plate assay, also with different inocula. Conditions: A. baumannii ATCC17978. It counts as cell-based, Acinetobacter baumannii.
Experiment [3] deals with E. faecalis ATCC29212-VSE. As to the kind of experiment: MIC and MBC microtiter plate assay. In kind it is cell-based.
Experiment [4] relates to Gram-positive control strains. Nature of the experiment: MIC and MBC, summary over Gram-positive control strains. It counts as cell-based, S. aureus and Enterococcus spp. The conditions noted are these: over the Gram-positive control strains (S. aureus and Enterococcus spp.).
[5] abbreviates: E. faecalis ATCC51299-VRE, value in brackets.
Setting [6] is: S.aureus ATCC12598-MSSA, value in brackets.

With `O=c1[nH]cc(F)c(=O)[nH]1` [5-FU, 5-Fluorouracil, reference compound], the IC50 with CaCo-2 cells came out at 27.4 µM; in the experiment on CaCo-2 cells (Homo sapiens, Caco-2, 24 h), 27.4 µM.

As for `CN(C)c1ccc(/C=C/c2ccc3ccccc3[n+]2C)cc1.[I-]` [PB1], the MIC in the experiment on P. aeruginosa ATCC27853 is > 128 µg/mL; against P. aeruginosa ATCC27853 (value in brackets), > 307.47 µM; in [1] it was > 128 µg/mL; in experiment [1] (value in brackets), > 307.47 µM; in the experiment with S.aureus ATCC29213-MSSA it was 4 µg/mL; against S.aureus ATCC29213-MSSA (value in brackets), 9.61 µM. In addition, the MIC in experiment [2] (E. faecalis ATCC51299-VRE) is 32 mg/L; in experiment [2] (setting [5]), 76.87 µM; against S.aureus Mu50-VISA it was 32 µg/mL; with S.aureus Mu50-VISA (value in brackets), 76.87 µM; in the experiment on E. coli ATCC25922 it was 16 µg/mL; in the experiment on E. coli ATCC25922 (value in brackets), 38.43 µM. Further, the MIC in the experiment with S.aureus USA300-CAMRSA was 2 µg/mL; against S.aureus USA300-CAMRSA (value in brackets) it was 4.80 µM; with S.aureus ATCC12598-MSSA (S.aureus ATCC12598-MSSA), 2 mg/L; in the experiment on S.aureus ATCC12598-MSSA (setting [6]), 4.80 µM; against K. pneumoniae ATCC700603 it was > 128 µg/mL; with K. pneumoniae ATCC700603 (value in brackets), > 307.47 µM. Besides, the minimum inhibitory concentration (MIC) in the experiment on A. baumannii ATCC17978 is 128 µg/mL; against A. baumannii ATCC17978 (value in brackets), 307.47 µM; in [3], 32 µg/mL; in [3] (value in brackets), 76.87 µM. This compound also registered an IC50 in the experiment with CaCo-2 cells of 1.2 µM.

Consider `C[n+]1c(/C=C/c2ccc(-c3ccccc3)s2)ccc2ccccc21.[I-]` [PB3], for which the MIC was > 128 µg/mL in the experiment with P. aeruginosa ATCC27853; 281.10 µM with P. aeruginosa ATCC27853 (value in brackets); 4 µg/mL with S.aureus ATCC29213-MSSA; 8.78 µM against S.aureus ATCC29213-MSSA (value in brackets); 32 mg/L in experiment [2] (E. faecalis ATCC51299-VRE); 70.28 µM in [2] (setting [5]). Also, the MIC is 32 µg/mL in the experiment on S.aureus Mu50-VISA; 70.28 µM in the experiment on S.aureus Mu50-VISA (value in brackets); 16 µg/mL against E. coli ATCC25922; 35.14 µM in the experiment on E. coli ATCC25922 (value in brackets); 2 µg/mL in the experiment with S.aureus USA300-CAMRSA; 4.39 µM in the experiment with S.aureus USA300-CAMRSA (value in brackets). For the same compound, the MIC was 8 mg/L with S.aureus ATCC12598-MSSA (S.aureus ATCC12598-MSSA); 17.57 µM in the experiment with S.aureus ATCC12598-MSSA (setting [6]); > 128 µg/mL with K. pneumoniae ATCC700603; > 281.10 µM in the experiment with K. pneumoniae ATCC700603 (value in brackets); 64 µg/mL against A. baumannii ATCC17978; 140.55 µM against A. baumannii ATCC17978 (value in brackets). In addition, the MIC in experiment [3] worked out at 32 µg/mL; in [3] (value in brackets) it was 70.28 µM. Moreover, inhibition with CaCo-2 cells was half-maximal at 0.871 µM (IC50).

On to `CC[n+]1ccc2c(c1)CCCC2=Cc1ccc(-c2ccc(Cl)cc2)o1.[I-]` [PB7], for which the minimal inhibitory concentration (MIC) was > 128 µg/mL against P. aeruginosa ATCC27853; > 276.02 µM against P. aeruginosa ATCC27853 (value in brackets); 64 µg/mL in experiment [1]; 138.01 µM in [1] (value in brackets); 4 µg/mL in the experiment on S.aureus ATCC29213-MSSA; 8.63 µM against S.aureus ATCC29213-MSSA (value in brackets). Besides, the MIC in [2] (E. faecalis ATCC51299-VRE) was 8 mg/L; in experiment [2] (setting [5]), 17.25 µM; in [2] (E. faecalis ATCC51299, inoculum 1.00101 (1 × 10^1 CFU/mL)), 8 mg/L and 17.25 μM; in experiment [2] (E. faecalis ATCC51299, inoculum 1.00102 (1 × 10^2 CFU/mL)) it was 8 mg/L and 17.25 μM; in experiment [2] (E. faecalis ATCC51299, inoculum 1.00103 (1 × 10^3 CFU/mL)), 8 mg/L and 17.25 μM; in experiment [2] (E. faecalis ATCC51299, inoculum 1.00104 (1 × 10^4 CFU/mL)), 8 mg/L and 17.25 μM. Also, the MIC was 8 mg/L and 17.25 μM in experiment [2] (E. faecalis ATCC51299, inoculum 1.00105 (1 × 10^5 CFU/mL, standard)); 16 mg/L and 34.50 μM in experiment [2] (E. faecalis ATCC51299, inoculum 1.00106 (1 × 10^6 CFU/mL)); 32 mg/L and 69.00 μM in [2] (E. faecalis ATCC51299, inoculum 1.00107 (1 × 10^7 CFU/mL)); 16 µg/mL in the experiment on S.aureus Mu50-VISA; 34.50 µM in the experiment with S.aureus Mu50-VISA (value in brackets); 32 µg/mL against E. coli ATCC25922. Further, the MIC in the experiment on E. coli ATCC25922 (value in brackets) was 69.00 µM; in the experiment on S.aureus USA300-CAMRSA, 2 µg/mL; in the experiment with S.aureus USA300-CAMRSA (value in brackets), 4.31 µM; against S.aureus ATCC12598-MSSA (S. aureus ATCC12598, inoculum 1.00101 (1 × 10^1 CFU/mL)), 2 mg/L and 4.31 μM; in the experiment on S.aureus ATCC12598-MSSA (S. aureus ATCC12598, inoculum 1.00102 (1 × 10^2 CFU/mL)), 4 mg/L and 8.63 μM; against S.aureus ATCC12598-MSSA (S. aureus ATCC12598, inoculum 1.00103 (1 × 10^3 CFU/mL)) it was 8.63 μM and 4 mg/L. Further, the MIC was 4 mg/L and 8.63 μM against S.aureus ATCC12598-MSSA (S. aureus ATCC12598, inoculum 1.00104 (1 × 10^4 CFU/mL)); 8 mg/L and 17.25 μM against S.aureus ATCC12598-MSSA (S. aureus ATCC12598, inoculum 1.00105 (1 × 10^5 CFU/mL, standard)); 8 mg/L and 17.25 μM against S.aureus ATCC12598-MSSA (S. aureus ATCC12598, inoculum 1.00106 (1 × 10^6 CFU/mL)); 32 mg/L and 69.00 μM against S.aureus ATCC12598-MSSA (S. aureus ATCC12598, inoculum 1.00107 (1 × 10^7 CFU/mL)); 8 mg/L in the experiment on S.aureus ATCC12598-MSSA (S.aureus ATCC12598-MSSA); 17.25 µM in the experiment with S.aureus ATCC12598-MSSA (setting [6]). Also, the minimum inhibitory concentration (MIC) is 128 µg/mL in the experiment on K. pneumoniae ATCC700603; 276.02 µM in the experiment with K. pneumoniae ATCC700603 (value in brackets); ≤ 16 µg/mL in experiment [4]; 32 µg/mL against A. baumannii ATCC17978; 69.00 µM against A. baumannii ATCC17978 (value in brackets); 8 µg/mL in experiment [3]. Moreover, the MIC in [3] (value in brackets) was 17.25 µM. Moreover, the MBC against S.aureus ATCC29213-MSSA came out at 4 µg/mL; against S.aureus ATCC29213-MSSA (value in brackets), 8.63 µM; in experiment [2] (E. faecalis ATCC51299-VRE), 128 µg/mL; in experiment [2] (setting [5]), 276.02 µM; against S.aureus Mu50-VISA, 16 µg/mL; in the experiment on S.aureus Mu50-VISA (value in brackets), 34.50 µM. In addition, the MBC in the experiment with S.aureus USA300-CAMRSA is 32 µg/mL; in the experiment on S.aureus USA300-CAMRSA (value in brackets), 69.00 µM; in the experiment on S.aureus ATCC12598-MSSA (S.aureus ATCC12598-MSSA) it was 8 µg/mL; with S.aureus ATCC12598-MSSA (setting [6]) it was 17.25 µM; in experiment [3] it was 128 µg/mL; in experiment [3] (value in brackets) it was 276.02 µM. Besides, in the experiment on CaCo-2 cells, the IC50 amounted to 1.36 µM.
